Each compound was assayed against Transforming acidic coiled-coil-containing protein 3 (Homo sapiens) (UniProt Q9Y6A5) (assay: ARNT/TACC3 interaction disruptors, potency, confirmation, biochemical, AlphaScreen, cherry-picked samples (AID 651703;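 also: TACC3 partner is the GST-tagged E629A mutant dimer; hits lower the signal meaning they disrupt ARNT binding to TACC3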)). Details: AlphaScreen His-ARNT PAS-B / GST-TACC3 binding, luminescence.

| SMILES | AC50 [µM] |
| --- | --- |
| CCN(CC)C(=O)c1sc2nc(-c3ccccn3)[nH]c(=O)c2c1C | 10.5 |
| Nc1ccccc1C(=O)N=Nc1[nH]c(N)c2ccccc12 | 10.3 |
| CC(NC(=O)c1ccco1)C(=O)Nc1nc(-c2ccccn2)cs1 (centres undefined) | 4.52 |
| O=C(O)c1cc2c(cn1)[nH]c1ccccc12 | 1.8 |
| Nc1nc(-c2ccccn2)nc(N)c1Cc1ccc(Cl)cc1Cl | 2.6 |
| CSc1ccccc1NC(=O)CN(C)C(=O)COc1cccc2cccnc12 | 13.8 |
| Cc1c(C(=O)N(C)C)sc2nc(-c3ccccn3)[nH]c(=O)c12 | 2.78 |
| O=C(CSc1ccc(-c2ccccn2)nn1)Nc1nccs1 | 2.93 |
| Cc1nc2ncccn2c1-c1csc(Nc2ccccc2)n1 | 41.6 |
| O=S1(=O)N=C(N(CCO)/N=C/C=C/c2ccccc2)c2ccccc21 | 53.9 |
| NC1=CC(=O)C(=O)c2ccccc21 | 38.9 |
| C/C(=N\NC(=O)c1c[nH]c2ccccc12)c1ccc(C)o1 | 16.4 |
| CC(C)Nc1nc(NC(C)C)nc(C(=O)OCCO)n1 | 41.8 |
| Cc1ccc(C(=O)Nc2nc(-c3ccccn3)cs2)o1 | 2.07 |
| Oc1c(C(c2ccc(Cl)cc2)N2CCCC2)cc(Cl)c2cccnc12 (centres undefined) | 1.36 |
| CCN(CC)c1ccc(/C=N/NC(=O)c2cnccn2)c(O)c1 | 11.3 |
| N[C@@H]1CC[C@@H](CCn2cc(-c3ccccn3)nn2)O[C@H]1CO | 0.565 |
| CCOC(=O)Cc1nnc(NC(=O)c2ncn[nH]2)s1 | 23.2 |
| CCOC(=O)c1cnc(-n2[nH]c(C)cc2=O)[nH]c1=O | 0.754 |

More lines, now with the values ahead:

| AC50 [µM] | SMILES |
| --- | --- |
| 1.33 | CC(C)(C)c1ccc(CNc2nc(-c3ccccn3)nnc2-c2ccccc2)cc1 |
| 3.6 | Cc1c(NC(=O)CSc2cccc3cccnc23)c(=O)n(-c2ccccc2)n1C |
| 19.9 | CN(C)CCN(C(=O)c1ccc2c(c1)CCCC2)c1nc2cc3c(cc2s1)OCCO3 |
| 15.6 | O=C(NNc1ccccn1)C(=O)NNS(=O)(=O)c1ccc(Cl)cc1 |
| 33.2 | COC(=O)c1ccc2[nH]c3c(c2c1)CC(C)CC3 (centres undefined) |
| 4.99 | CCN(CC)c1ccc(Nc2nc(N3CCOCC3)c3ccccc3n2)cc1 |
| 4.73 | O=C(CSc1ccc(-c2ccccn2)nn1)c1ccc([N+](=O)[O-])cc1 |
| 4.5 | CCN(CC)S(=O)(=O)c1cccc(C(=O)N/N=C/c2ccc(O)c(O)c2O)c1 |
| 2.6 | COc1ccc(S(=O)(=O)n2oc(=O)cc2-c2ccccc2)cc1OC |
| 21.2 | C=C1c2cccc(O)c2C(=O)C2C(=O)[C@]3(O)C(=O)C(C(N)=O)C(=O)[C@@H](N(C)C)[C@@H]3[C@@H](O)[C@H]12 (some centres undefined) |
| 24.3 | Cc1cccc(S(=O)(=O)N[C@H]2CC[C@@H](CCn3cc(-c4ccccn4)nn3)O[C@@H]2CO)c1 |
| 15.6 | Cc1ccccc1-n1c(SCC(=O)Nc2ccc3c(c2)OCO3)nnc1-c1ccccn1 |
| < 0.5 | c1ccc(-c2nnc(-c3ccccn3)nc2NCC2CCOCC2)cc1 |
| 18.5 | Cc1cccc(S(=O)(=O)N[C@H]2CC[C@H](CCn3cc(-c4ccccn4)nn3)O[C@H]2CO)c1 |
| 58 | CO[C@@H]1CN(C)C(=O)c2cc(NS(=O)(=O)CC(F)(F)F)ccc2OC[C@@H](C)N(C(=O)c2ccc3c(c2)OCO3)C[C@@H]1C |
| 66.7 | C/C=C/c1ccc([C@H]2[C@@H](CO)N(Cc3ccccn3)[C@H]2CNC(=O)CC)cc1 |
| 2.48 | Oc1ccc(CN2CCC(Cc3ccccc3)CC2)c2cccnc12 |
| 16 | O=C(COC(=O)c1cccc(O)c1)Nc1nnc(-c2ccccc2)o1 |
| 20.3 | CCOc1cc(N2CCOCC2)c(OCC)cc1NC(=O)COc1cccc2cccnc12 |
| 2.57 | COC(=O)c1ccc(NC(=O)CSc2ccc(-c3ccccn3)nn2)cc1 |
| 13.2 | COc1ccc(NC(=O)CSc2nnc(-c3ccccn3)n2N)cc1 |
| 15 | COc1ccc(C(=O)Oc2cccc3cccnc23)cc1[N+](=O)[O-] |
| 14.1 | C=CCn1c(Cc2csc(N)n2)nnc1SCC(=O)Nc1ccc(C(=O)OCC)cc1 |
| 19 | COc1cc(OC)c(C(=O)OCC(=O)Nc2nnc(-c3ccccc3)o2)cc1OC |
| 45.1 | CCN(C(=O)COc1cccc2cccnc12)C1CCS(=O)(=O)C1 (centres undefined) |
